Measurements published in patent US20220213049A1, “S[…]-4-ONE FOR THE TREATMENT AND PROPHYLAXIS OF HEPATITIS B VIRUS INFECTION” (priority 2019, published 2022).

Tested on: HBeAg (surrogate marker for cccDNA) in HepDES19 cells
Experiment: Engineered HepDES19 primary screen assay (HBeAg ELISA)
Format: cell-based, HBV
Settings: Hepatitis B virus, HepDES19, 120 h, read-out: IC50 (HBeAg level, HepDES19 primary screen assay)
Excerpt: The assay was employed to screen for novel cccDNA inhibitors. HepDES19 is a cccDNA-producing cell line. In this cell line, HBeAg in the cell culture supernatant as surrogate marker, as HBeAg production depends on cccDNA level and activity. HepDES19 is an engineered cell line which contains a 1.1 unit length HBV genome, and pgRNA transcription from the transgene is controlled by Tetracycline (Tet). In the absence of Tet, pgRNA transcription will be induced, but HBV e antigen (HBeAg) could not be produced from this pgRNA due to very short leader sequence before the HBeAg start codon and the start codon is disrupted. Only after cccDNA is formed, the missing leader sequence and start codon mutation would be restored from the 3′-terminal redundancy of pgRNA, and then HBeAg could be synthesized. Therefore, HBeAg could be used as a surrogate marker for cccDNA (Zhou, T. et al., Antiviral Res. (2006), 72(2), 116-124; Guo, H. et al., J. Virol. (2007), 81(22), 12472-12484).
HepDES19 cells were seeded at 2×10^6 cells per T150 flask and cultured with the culture medium (Dulbecco's Modified Eagle Medium: Nutrient Mixture F-12 [DMEM-F12, Gibco Cat. 11320-82], 10% Fetal Bovine Serum [FBS, Clontech Cat. 631101], 0.1 mM Non-Essential Amino Acids Solution [NEAA, Gibco Cat. 11140-050], 50 μg/mL Penicillin-Streptomycin [PS, Invitrogen Cat. 15140-163], 500 μg/mL Geneticin [G418, Invitrogen Cat. 10131-027]) containing 3 μg/mL Tet (Sigma, Cat. 87128) for 5 days. Cells were then seeded at 4×10^6 cells per T150 in the same culture medium as described above in the absence of Tet for 8 days. Cells were then harvested and frozen at density of 2×10^6 cells per ML. For compound testing, the frozen cells were thawed and seeded into 96-well plates at a density of 6×10^4 cells per well. At 24 hours after seeding, half log serial dilutions of compounds made with Dimethyl sulfoxide (DMSO, Sigma, Cat. D2650) were further diluted with the same culture medium as described above before they were added to the cells to reach desired final compound concentrations and 1% DMSO concentration. Plates were then incubated at 37° C. for another 5 days before measurement of HBeAg level and cell viability. Intracellular HBeAg level were measured with enzyme-linked immunosorbent assay (ELISA) kit (Shanghai Kehua Diagnostic Medical Products Co., Ltd). Cell viability was assessed using Cell Counting Kit-8 (DonJindo, Cat. CK04-20). IC50 values were derived from the dose-response curve using 4 parameter logistic curve fit method.
The compounds of the present invention were tested for their capacity to inhibit extracellular HBeAg level as described herein.

| SMILES | IC50 [nM] |
| --- | --- |
| COc1cc(C)c(OCCC(=O)O)cc1-c1cc(=O)c2cccc(Cl)c2o1 [Example 10, 3-[5-(8-Chloro-4-oxo-chromen-2-yl)-4-methoxy-2-methyl-phenoxy]propanoic acid] | 1540 |
| COc1c(-c2cc(=O)c3cccc(Cl)c3o2)ccc(Br)c1OCCCNC(=O)C(=O)O [Example 44, 2-[3-[6-Bromo-3-(8-chloro-4-oxo-chromen-2-yl)-2-methoxy-phenoxy]propylamino]-2-oxo-acetic acid] | 1440 |
| COc1c(-c2cc(=O)c3cccc(Cl)c3o2)ccc(Cl)c1OCC(=O)O [Example 37, 2-[6-Chloro-3-(8-chloro-4-oxo-chromen-2-yl)-2-methoxy-phenoxy]acetic acid] | 10100 |
| O=C(O)CCOc1cc(-c2cc(=O)c3cccc(Cl)c3o2)c(OC(F)(F)F)cc1Br [Example 42, 3-[2-Bromo-5-(8-chloro-4-oxo-chromen-2-yl)-4-(trifluoromethoxy)phenoxy]propanoic acid] | 2630 |
| COc1c(OC2CC(C(=O)O)C2)cccc1-c1cc(=O)c2cccc(Cl)c2o1 (centres unmarked) [Example 28, 3-[3-(8-Chloro-4-oxo-chromen-2-yl)-2-methoxy-phenoxy]cyclobutanecarboxylic acid] | 560 |
| COc1cc(OC)c(-c2cc(=O)c3cccc(Cl)c3o2)cc1OCCOC1CC(C(=O)O)C1 (centres unmarked) [Example 13, 3-[2-[5-(8-Chloro-4-oxo-chromen-2-yl)-2,4-dimethoxy-phenoxy]ethoxy]cyclobutanecarboxylic acid] | 190 |
| COc1c(-c2cc(=O)c3cccc(Cl)c3o2)ccc(Br)c1OCCO[C@H]1C[C@@H](C(=O)O)C1 [Example 34, Cis-3-[2-[6-bromo-3-(8-chloro-4-oxo-chromen-2-yl)-2-methoxy-phenoxy]ethoxy]cyclobutanecarboxylic acid] | 940 |
| COc1cc(Br)c(-c2cc(=O)c3cccc(Cl)c3o2)cc1O[C@H]1C[C@H](C(=O)O)C1 [Example 26, Trans-3-[4-bromo-5-(8-chloro-4-oxo-chromen-2-yl)-2-methoxy-phenoxy]cyclobutanecarboxylic acid] | 1070 |
| COc1cc(-c2cc(=O)c3cccc(Cl)c3o2)cc(OCCO[C@H]2C[C@H](C(=O)O)C2)c1OC [Example 24, Trans-3-[2-[5-(8-chloro-4-oxo-chromen-2-yl)-2,3-dimethoxy-phenoxy]ethoxy]cyclobutanecarboxylic acid] | 1460 |
| COc1ccc(-c2cc(=O)c3cccc(Cl)c3o2)cc1OCCOC1CC(C(=O)O)C1 (centres unmarked) [Example 18, 3-[2-[5-(8-Chloro-4-oxo-chromen-2-yl)-2-methoxy-phenoxy]ethoxy]cyclobutanecarboxylic acid] | 520 |
| O=c1cc(-c2ccc(C(F)(F)F)c(O[C@H]3C[C@H](C(=O)O)C3)c2)oc2c(Cl)cccc12 [Example 21, trans-3-[5-(8-chloro-4-oxo-chromen-2-yl)-2-(trifluoromethyl)phenoxy]cyclobutanecarboxylic acid] | 4120 |
| COc1ccc(-c2cc(=O)c3cccc(Cl)c3o2)cc1OCCC(=O)O [Example 19, 3-[5-(8-Chloro-4-oxo-chromen-2-yl)-2-methoxy-phenoxy]propanoic acid] | 7930 |
| COc1cc(Cl)c(OC2CC(C(=O)O)C2)cc1-c1cc(=O)c2cccc(Cl)c2o1 (centres unmarked) [Example 7, 3-[2-Chloro-5-(8-chloro-4-oxo-chromen-2-yl)-4-methoxy-phenoxy]cyclobutanecarboxylic acid] | 4510 |
| Cc1ccc(-c2cc(=O)c3cccc(Cl)c3o2)cc1O[C@H]1C[C@H](C(=O)O)C1 [Example 16, trans-3-[5-(8-chloro-4-oxo-chromen-2-yl)-2-methyl-phenoxy]cyclobutanecarboxylic acid] | 6360 |
| O=C(O)CCOc1cc(-c2cc(=O)c3cccc(Cl)c3o2)c(F)cc1Br [Example 41, 3-[2-Bromo-5-(8-chloro-4-oxo-chromen-2-yl)-4-fluoro-phenoxy]propanoic acid] | 133 |
| COc1ccc(-c2cc(=O)c3cccc(Cl)c3o2)c(OC)c1OCC(=O)O [Example 38, 2-[3-(8-Chloro-4-oxo-chromen-2-yl)-2,6-dimethoxy-phenoxy]acetic acid] | 1130 |
| O=C(O)CCOc1cc(-c2cc(=O)c3cccc(Cl)c3o2)c(OC(F)F)cc1Br [Example 40, 3-[2-Bromo-5-(8-chloro-4-oxo-chromen-2-yl)-4-(difluoromethoxy)phenoxy]propanoic acid] | 1390 |
| COc1cc(Br)c(OCCC(=O)NS(=O)(=O)C2CC2)cc1-c1cc(=O)c2cccc(Cl)c2o1 [Example 3, 3-[2-Bromo-5-(8-chloro-4-oxo-chromen-2-yl)-4-methoxy-phenoxy]-N-cyclopropylsulfonyl-propanamide] | 580 |
| COc1ccc(OCC(=O)O)cc1-c1cc(=O)c2cccc(Cl)c2o1 [Example 32, 2-[3-(8-Chloro-4-oxo-chromen-2-yl)-4-methoxy-phenoxy]acetic acid] | 7130 |
| O=C(O)CCOc1cc(-c2cc(=O)c3cccc(Cl)c3o2)c(Cl)cc1Br [Example 43, 3-[2-Bromo-4-chloro-5-(8-chloro-4-oxo-chromen-2-yl)phenoxy]propanoic acid] | 11700 |
| COc1cc(Br)c(-c2cc(=O)c3cccc(Cl)c3o2)cc1OCCO[C@H]1C[C@H](C(=O)O)C1 [Example 27, Trans-3-[2-[4-Bromo-5-(8-chloro-4-oxo-chromen-2-yl)-2-methoxy-phenoxy]ethoxy]cyclobutanecarboxylic acid] | 3240 |
| COc1cc(Br)c(OCCNC(=O)C(=O)O)cc1-c1cc(=O)c2cccc(Cl)c2o1 [Example 45, 2-[2-[2-Bromo-5-(8-chloro-4-oxo-chromen-2-yl)-4-methoxy-phenoxy]ethylamino]-2-oxo-acetic acid] | 1400 |
| COc1cc(-c2cc(=O)c3cccc(Cl)c3o2)cc(OCC(=O)O)c1OC [Example 25, 2-[5-(8-Chloro-4-oxo-chromen-2-yl)-2,3-dimethoxy-phenoxy]acetic acid] | 7510 |
| CCOc1cc(Br)c(OCCC(=O)O)cc1-c1cc(=O)c2cccc(Cl)c2o1 [Example 39, 3-[2-Bromo-5-(8-chloro-4-oxo-chromen-2-yl)-4-ethoxy-phenoxy]propanoic acid] | 110 |
| O=c1cc(-c2ccc(C(F)(F)F)c(O[C@H]3C[C@@H](C(=O)O)C3)c2)oc2c(Cl)cccc12 [Example 20, Cis-3-[5-(8-chloro-4-oxo-chromen-2-yl)-2-(trifluoromethyl)phenoxy]cyclobutanecarboxylic acid] | 2140 |
| COc1cc(Br)c(OCCCOCC(=O)O)cc1-c1cc(=O)c2cccc(Cl)c2o1 [Example 6, 2-[3-[2-Bromo-5-(8-chloro-4-oxo-chromen-2-yl)-4-methoxy-phenoxy]propoxy]acetic acid] | 1660 |
| COc1cc(Br)c(OCC(=O)O)cc1-c1cc(=O)c2cccc(Cl)c2o1 [Example 4, 2-[2-Bromo-5-(8-chloro-4-oxo-chromen-2-yl)-4-methoxy-phenoxy]acetic acid] | 1960 |
| COc1cc(C)c(OCCOC2CC(C(=O)O)C2)cc1-c1cc(=O)c2cccc(Cl)c2o1 (centres unmarked) [Example 9, 3-[2-[5-(8-Chloro-4-oxo-chromen-2-yl)-4-methoxy-2-methyl-phenoxy]ethoxy]cyclobutanecarboxylic acid] | 5200 |
| COc1c(OCCO[C@H]2C[C@@H](C(=O)O)C2)cccc1-c1cc(=O)c2cccc(Cl)c2o1 [Example 29, Cis-3-[2-[3-(8-chloro-4-oxo-chromen-2-yl)-2-methoxy-phenoxy]ethoxy]cyclobutanecarboxylic acid] | 3240 |
